Assay results: patent US4710568A, “Carbapenem antibiotics” (priority 1986, dated 1987)
≈ marks a conversion by molar mass, not a printed value. Read-outs that look alike come from different tables or passages of the source.

What was measured:
[1] = tested on: P. rettgeri A22424; test: MIC by tube dilution in Nutrient Broth; format: cell-based; details: additional data; overnight at 37° C.
[2] = tested on: S. aureus (Pen-res.) A-9606; test: MIC by tube dilution in Nutrient Broth; format: cell-based; details: additional data, overnight at 37° C.
[3] = tested on: P. morganii A15153; test: MIC by tube dilution in Nutrient Broth; format: cell-based; details: additional data (M. morganii A15153); overnight at 37° C.
[4] = tested on: K. pneumoniae A20468; test: MIC by tube dilution in Nutrient Broth; format: cell-based; details: additional data; overnight at 37° C.
[5] = tested on: S. pyogenes A-9604; test: MIC by tube dilution in Nutrient Broth; format: cell-based; details: additional data; overnight at 37° C.
[6] = tested on: E. cloacae A-9656; test: MIC by tube dilution in Nutrient Broth; format: cell-based; details: additional data; overnight at 37° C.
[7] = tested on: P. aeruginosa A-9843A; test: MIC by tube dilution in Nutrient Broth; format: cell-based; details: additional data; overnight at 37° C.
[8] = half-life in phosphate buffer pH 7.4; format: physicochemical; details: for t1/2: pH 7.4
Description: To a solution of p-nitrobenzyl 3-[2-(1-pyridinium)ethylthio]-6α-[1-(R)-hydroxyethyl]-7-oxo-1-azabicyclo(3.2.0)hept-2-ene-carboxylate diphenylphosphate (0.16 g, 0.22 mmol) in wet tetrahydrofuran (10 mL) was added ether (10 mL), potassium phosphate monobasic-sodium hydroxide buffer pH 7.4 (16 mL, 0.05M) and 10% palladium on charcoal (0.16 g). The resulting mixture was hydrogenated under 40 psi for 1 h at 25° C. The two phases were separated and the organic phase was extracted with water (2×3 mL). The aqueous solutions were combined, washed with ether (2×10 mL) and poured on top of a column (1.5×6.2 cm) of μ-bondapak C-18 after the traces of organic solvents have been removed under vacuum.
To a solution of p-nitrobenzyl 3-[2-(1-(3,5-dimethylpyridinium))ethylthio]-6α-[1-(R)-hydroxyethyl]- 7-oxo-1-azabicyclo(3.2.0)hept-2-ene-2-carboxylate diphenylphosphate (0.600 g, 0.80 mmol) in wet tetrahydrofuran (36 mL) was added ether (36 mL), potassium phosphate monobasic-sodium hydroxide buffer (0.05M, pH 7.4, 44 mL) and 10% palladium on charcoal (0.60 g). The resulting mixture was hydrogenated under 40 psi at 23° C. for 1.25 h. The organic layer was separated and extracted with buffer (2×5 mL). […] Elution of the column with water and lyophilization of the appropriate fractions gave the title compound 0.186 g (64%) as a yellowish powder, ir (KBr) .nu.max : 3700-3100 (OH), 1760 (C= O of β-lactam), 1595 cm^-1 (carboxylate), ^1 Hmr (D2 O) δ: 1.21 (3H, d, J=6.3 Hz, CH3 CHOH), 2.45 (6H, s, CH3 on pyridinium), 2.81 (d, J=9.2 Hz, H-4), 2.96 (d, J=9.2 Hz, H-4), 3.22 (dd, J=2.6 Hz, J=6.2 Hz, H-6), 3.40 (t, J=6.2 Hz, CH2 S), 3.84 (dd, J=9.2 Hz, J=2.6 Hz, H-5), 4.15 (m, CH3 CHOH), 4.71 (t, J=6.2 Hz, CH2 N^+), 8.21 (1H, s, Hp of pyridinium), 8.46 (2H, s, Ho of pyridinium), uv (H2 O) λmax : 279 (ε8345), 296 (ε7714) m, [α]D^23 +40.7 (c 0.53, H2 O), .tau.1/2 =16.9 h (measured at a concentration of […] in phosphate buffer pH 7.4 at 36.8° C.). […]

[9] = tested on: S. aureus A-9537; test: MIC by tube dilution in Nutrient Broth; format: cell-based; details: additional data, overnight at 37° C.
[10] = tested on: S. faecalis A20688; test: MIC by tube dilution in Nutrient Broth; format: cell-based; details: additional data; overnight at 37° C.
[11] = tested on: E. coli A15119; test: MIC by tube dilution in Nutrient Broth; format: cell-based; details: overnight at 37° C.
[12] = tested on: P. mirabilis A-9900; test: MIC by tube dilution in Nutrient Broth; format: cell-based; details: additional data; overnight at 37° C.
[13] = tested on: E. cloacae A-9659; test: MIC by tube dilution in Nutrient Broth; format: cell-based; details: additional data; overnight at 37° C.
[14] = tested on: S. pneumoniae A-9585; test: MIC by tube dilution in Nutrient Broth; format: cell-based; details: additional data; overnight at 37° C.
[15] = tested on: K. pneumoniae A-9664; test: MIC by tube dilution in Nutrient Broth; format: cell-based; details: additional data; overnight at 37° C.
[16] = tested on: S. marcescens A20019; test: MIC by tube dilution in Nutrient Broth; format: cell-based; details: additional data; overnight at 37° C.
[17] = tested on: E. coli A20341-1; test: MIC by tube dilution in Nutrient Broth; format: cell-based; details: overnight at 37° C.
[18] = tested on: P. vulgaris A21559; test: MIC by tube dilution in Nutrient Broth; format: cell-based; details: additional data; overnight at 37° C.
[19] = tested on: P. aeruginosa A21213; test: MIC by tube dilution in Nutrient Broth; format: cell-based; details: additional data; overnight at 37° C.
[20] = Escherichia coli, A15119, additional data, read-out: MIC

SMILES | MIC [3] [µg/mL] | MIC [5] [µg/mL] | MIC [7] [µg/mL] | MIC ([9]; 50% serum) [µg/mL] | MIC [9] [µg/mL] | MIC [10] [µg/mL] | MIC [12] [µg/mL] | MIC [14] [µg/mL] | MIC [18] [µg/mL] | MIC [19] [µg/mL] | further results
CC(C[n+]1ccccc1)SC1=C(C(=O)[O-])N2C(=O)[C@H]([C@@H](C)O)[C@H]2C1 (single isomer, unassigned) [Ex. 15 (cmp. "A")] | 0.13 (≈ 0.373 µM) | 0.004 (≈ 0.0115 µM) | 8 (≈ 23 µM) | 0.06 (≈ 0.172 µM) | 0.016 (≈ 0.0459 µM) | 2 (≈ 5.74 µM) | 0.13 (≈ 0.373 µM) | 0.004 (≈ 0.0115 µM) | – | – | MIC [1]: 0.25 µg/mL (≈ 0.718 µM); MIC [2]: 0.06 µg/mL (≈ 0.172 µM); MIC [4]: 0.13 µg/mL (≈ 0.373 µM); MIC [6]: 0.25 µg/mL (≈ 0.718 µM); t1/2 [8]: 15.6 h; MIC ([11]; additional data): 0.03 µg/mL (≈ 0.0861 µM); MIC [13]: 0.13 µg/mL (≈ 0.373 µM)
CC(C[n+]1ccccc1)SC1=C(C(=O)[O-])N2C(=O)[C@H]([C@@H](C)O)[C@H]2C1 (single isomer, unassigned) [Ex. 15 (cmp. "B")] | 0.06 (≈ 0.172 µM) | 0.001 (≈ 0.00287 µM) | 32 (≈ 91.8 µM) | 0.016 (≈ 0.0459 µM) | 0.004 (≈ 0.0115 µM) | 0.5 (≈ 1.44 µM) | 0.03 (≈ 0.0861 µM) | 0.001 (≈ 0.00287 µM) | 0.016 (≈ 0.0459 µM) | 1 (≈ 2.87 µM) | MIC [2]: 0.016 µg/mL (≈ 0.0459 µM); MIC [4]: 0.06 µg/mL (≈ 0.172 µM); MIC [15]: 0.03 µg/mL (≈ 0.0861 µM); MIC [16]: 0.03 µg/mL (≈ 0.0861 µM); MIC ([17]; additional data): 0.016 µg/mL (≈ 0.0459 µM); MIC ([11]; additional data): 0.008 µg/mL (≈ 0.023 µM); MIC [13]: 0.06 µg/mL (≈ 0.172 µM)
C[C@@H](O)[C@H]1C(=O)N2C(C(=O)[O-])=C(SC3CCCCC3[n+]3ccccc3)C[C@H]12 (single isomer, unassigned) [Ex. 16 (cmp. "A"), (5R,6S)3-[2-[(R or S)-(1-pyridinium)]-1-(R or S)-cyclohexylthio]-6-[1-(R)-hydroxyethyl]-7-oxo-1-azabicyclo(3.2.0)hept-2-ene-2-carboxylate] | 0.13 (≈ 0.335 µM) | 0.004 (≈ 0.0103 µM) | 32 (≈ 82.4 µM) | 0.06 (≈ 0.154 µM) | 0.06 (≈ 0.154 µM) | 4 (≈ 10.3 µM) | 0.13 (≈ 0.335 µM) | 0.004 (≈ 0.0103 µM) | 0.06 (≈ 0.154 µM) | 2 (≈ 5.15 µM) | MIC [1]: 4 µg/mL (≈ 10.3 µM); MIC ([2]; Staphylococcus aureus, read-out: MIC): 0.13 µg/mL (≈ 0.335 µM); MIC [15]: 0.13 µg/mL (≈ 0.335 µM); MIC ([17]; additional data): 0.06 µg/mL (≈ 0.154 µM); half-life ([8]; pH 7.4, t1/2): 16.6 h
C[C@@H](O)[C@H]1C(=O)N2C(C(=O)[O-])=C(SC3CCCCC3[n+]3ccccc3)C[C@H]12 (single isomer, unassigned) [Ex. 16 (cmp. "B"), (5R,6S)3-[2-[(R or S)-(1-pyridinium)]-1-(R or S)-cyclohexylthio]-6-[1-(R)-hydroxyethyl]-7-oxo-1-azabicyclo(3.2.0)hept-2-ene-2-carboxylate] | 0.5 (≈ 1.29 µM) | – | – | – | 0.13 (≈ 0.335 µM) | – | – | – | 0.13 (≈ 0.335 µM) | 8 (≈ 20.6 µM) | t1/2 [8]: 20.2 h
COc1ccc[n+](CCSC2=C(C(=O)[O-])N3C(=O)[C@H]([C@@H](C)O)[C@H]3C2)c1 [Ex. 10, 3-[2-(3-methoxy-1-pyridinium)ethylthio]6α-[1'-(R)-hydroxyethyl]-7-oxo-1-azabicyclo(3.2.0)hept-2-ene-2-carboxylate] | – | – | – | – | – | – | – | – | – | – | MIC ([17]; Escherichia coli, A203411, additional data, read-out: MIC): 0.06 µg/mL (≈ 0.165 µM)
Cc1cccc(C)[n+]1CCSC1=C(C(=O)[O-])N2C(=O)[C@H]([C@@H](C)O)[C@H]2C1 [Ex. 12] | – | – | – | – | – | – | – | – | – | – | MIC [11, 20]: 0.03 µg/mL (≈ 0.0828 µM)
C[C@@H](O)[C@H]1C(=O)N2C(C(=O)[O-])=C(SCC[n+]3cccc(N)c3)C[C@H]12 [Ex. 14, (5R,6S)-3-[2-(3-aminopyridinio)ethylthio]-6-[1-(R)-hydroxyethyl]-7-oxo-1-azabicyclo[3.2.0]hept-2-ene-2-carboxylate] | – | – | – | – | – | – | – | – | – | – | MIC [11, 20]: 0.03 µg/mL (≈ 0.0859 µM)
